Six molecules from ChEMBL document CHEMBL1127412, “PRO_LIGAND: an approach to de novo molecular design. 2. Design of novel molecules from molecular field analysis (MFA) models and pharmacophores” (J Med Chem, 1994) can be followed below.

Non-standard residues stand in square brackets, D forms with d. Residues, ends and D or L forms follow the SMILES beside them. Nle = CCCC[C@H](N)C(=O)O

This test has as its target Angiotensin-converting enzyme (Homo sapiens, UniProt P12821). The test can be described thus: Inhibition against ACE.
Turning to `CC(C)C[C@H](N)C(=O)N[C@@H](C)C(=O)N1CCC[C@H]1C(=O)O` (H-Leu-Ala-Pro-OH), the IC50 amounted to 2.3 µM.
`CCCC[C@H](N)C(=O)N[C@@H](C)C(=O)N1CCC[C@H]1C(=O)O` (H-[Nle]-Ala-Pro-OH): the IC50 stood at 0.7 µM.
The molecule `C[C@H](NC(=O)[C@@H](N)CCCNC(=N)N)C(=O)N1CCC[C@H]1C(=O)O` (H-Arg-Ala-Pro-OH) returned an IC50 of 16 µM.
`CC[C@H](C)[C@H](N)C(=O)N[C@@H](Cc1ccc(O)cc1)C(=O)O` (H-Ile-Tyr-OH) came in with an IC50 of 3.7 µM.
Under `C[C@H](NC(=O)[C@@H](N)Cc1ccccc1)C(=O)N1CCC[C@H]1C(=O)O` (H-Phe-Ala-Pro-OH) stands 4.2 µM; under `N[C@@H](Cc1ccccc1)C(=O)N1CCC[C@H]1C(=O)N1CCC[C@H]1C(=O)O` (H-Phe-Pro-Pro-OH), 78 µM.
